Experiments:
Assay type in all cases: biochemical
[1] = target: PDE 4 (cAMP specific PDE); experiment: Phosphodiesterase inhibiting effect, PDE 4 separated from dog kidney; settings: isozyme from the kidney of a dog; [3H]-cAMP or [3H]-cGMP substrate; read-out: PDE inhibiting activity : IC50(nM) PDE4
Procedure: (§1) Cyclic nucleotide phosphodiesterases from human platelets and from the heart and kidney of a dog were eluted by the concentration gradient method with 70 to 1000 mM of sodium acetate on DEAE-cellulose column chromatography (Whatman Co. Ltd., DE-52, φ 3.2 x 13 cm) according to the method of Thompson and others (Thompson W. J., et al., Advances in Cyclic Nucleotide Research: 10, 69-92, 1979), and separated into isozymes. PDE 5 (cGMP specific PDE), PDE 3 (cGMP inhibited PDE) and PDE 2 (cGMP stimulated PDE) were separated from the platelets, PDE 1 (Ca-calmodulin dependent PDE) and PDE 4 (cAMP specific PDE) were separated from the heart and the kidney respectively. The method of Thompson, et al was partially modified to measure phosphodiesterase activities: […] of [3H]-cAMP or [3H]-cGMP was decomposed with phosphodiesterase. The produced 5'-AMP or 5'-GMP was decomposed to adenosine or guanosine with a snake venom (Sigma V7000). The reaction solution was added to anion exchange resin (Bio-Rad Co. Ltd., AG1-X8). Non-adsorbed adenosine or guanosine was counted by a liquid scintillation counter. […]

[2] = target: PDE 1 (Ca-calmodulin dependent PDE); experiment: Phosphodiesterase inhibiting effect, PDE 1 separated from dog heart; settings: isozyme from the heart of a dog; [3H]-cAMP or [3H]-cGMP substrate; read-out: PDE inhibiting activity : IC50(nM) PDE1
Procedure: as §1

[3] = target: T1, PDE 5 (cGMP specific PDE) (Homo sapiens, UniProt O76074); experiment: Phosphodiesterase inhibiting effect, PDE 5 separated from human platelets; settings: isozyme from human platelets; [3H]-cAMP or [3H]-cGMP substrate; read-out: PDE inhibiting activity : IC50(nM) PDE5
T1 construct: from tissue; host or cells: human platelets, DEAE-cellulose fraction
Procedure: as §1

[4] = target: T2, PDE 3 (cGMP inhibited PDE) (Homo sapiens, UniProt Q14432); settings: isozyme from human platelets; [3H]-cAMP or [3H]-cGMP substrate; read-out: PDE inhibiting activity : IC50(nM) PDE3
T2 construct: from tissue; host or cells: human platelets, DEAE-cellulose fraction
T2 sequence (Q14432 whole entry): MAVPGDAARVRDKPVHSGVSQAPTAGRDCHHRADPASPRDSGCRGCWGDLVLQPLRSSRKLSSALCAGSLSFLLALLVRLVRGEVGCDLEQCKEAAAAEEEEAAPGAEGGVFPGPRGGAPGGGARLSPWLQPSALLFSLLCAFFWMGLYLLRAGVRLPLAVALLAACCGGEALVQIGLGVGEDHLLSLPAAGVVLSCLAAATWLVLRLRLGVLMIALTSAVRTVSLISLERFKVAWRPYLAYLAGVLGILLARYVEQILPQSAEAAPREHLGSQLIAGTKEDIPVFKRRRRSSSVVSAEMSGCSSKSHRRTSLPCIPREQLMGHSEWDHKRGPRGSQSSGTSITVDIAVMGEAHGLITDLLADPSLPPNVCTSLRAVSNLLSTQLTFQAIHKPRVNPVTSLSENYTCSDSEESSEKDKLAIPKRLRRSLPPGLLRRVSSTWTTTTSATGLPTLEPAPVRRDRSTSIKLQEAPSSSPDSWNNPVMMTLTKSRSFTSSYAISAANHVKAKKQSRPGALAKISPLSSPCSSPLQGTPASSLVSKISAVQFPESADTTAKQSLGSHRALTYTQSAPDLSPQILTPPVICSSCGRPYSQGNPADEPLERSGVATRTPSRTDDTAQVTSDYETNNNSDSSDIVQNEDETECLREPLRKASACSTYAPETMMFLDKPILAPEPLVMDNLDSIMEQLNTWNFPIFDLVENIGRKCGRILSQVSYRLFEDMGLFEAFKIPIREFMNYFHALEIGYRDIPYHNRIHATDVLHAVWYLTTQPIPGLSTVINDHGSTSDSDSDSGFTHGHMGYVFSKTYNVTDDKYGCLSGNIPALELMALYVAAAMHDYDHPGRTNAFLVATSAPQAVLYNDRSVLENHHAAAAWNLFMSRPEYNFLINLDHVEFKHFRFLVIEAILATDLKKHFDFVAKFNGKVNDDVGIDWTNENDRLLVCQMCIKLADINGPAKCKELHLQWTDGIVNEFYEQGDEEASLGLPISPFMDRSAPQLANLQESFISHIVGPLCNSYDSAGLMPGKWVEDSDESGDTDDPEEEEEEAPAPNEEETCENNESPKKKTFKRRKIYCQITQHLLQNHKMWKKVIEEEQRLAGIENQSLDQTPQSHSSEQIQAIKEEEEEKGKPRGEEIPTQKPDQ
From the text: PDE 5 (cGMP specific PDE), PDE 3 (cGMP inhibited PDE) and PDE 2 (cGMP stimulated PDE) were separated from the platelets, PDE 1 (Ca-calmodulin dependent PDE) and PDE 4 (cAMP specific PDE) were separated from the heart and the kidney respectively. The method of Thompson, et al was partially modified to measure phosphodiesterase activities: […] of [3H]-cAMP or [3H]-cGMP was decomposed with phosphodiesterase. The produced 5'-AMP or 5'-GMP was decomposed to adenosine or guanosine with a snake venom (Sigma V7000). The reaction solution was added to anion exchange resin (Bio-Rad Co. Ltd., AG1-X8). Non-adsorbed adenosine or guanosine was counted by a liquid scintillation counter.

| SMILES | IC50 [1] [nM] | IC50 [2] [nM] | IC50 [3] [nM] | IC50 [4] [nM] |
| --- | --- | --- | --- | --- |
| COc1ccc(CNc2nc(-c3cccnc3)nc3sc(C(=O)O)c(C)c23)cc1Cl [Compound 1] | 1200 | 7100 | 3 | – |
| COc1ccc(CNc2nc(-c3cccnc3)nc3sc(C(N)=O)c(C)c23)cc1Cl [Compound 3] | – | – | 2.3 | – |
| COc1ccc(CNc2nc(-c3cccnc3)nc3sc(C#N)c(C)c23)cc1Cl [Compound 4] | – | – | 4.5 | – |
| COc1ccc(CNc2nc(-c3cccnc3)nc3sc(C(=O)N(C)C)c(C)c23)cc1Cl [Compound 5] | 1400 | > 10000 | 3.7 | – |
| COc1ccc(CNc2nc(-c3cccnc3)nc3sc(C(=O)Nc4ccccc4)c(C)c23)cc1Cl [Compound 6] | – | > 10000 | 1.5 | – |
| COc1ccc(CNc2nc(-c3cccnc3)nc3sc(C(=O)N4CCOCC4)c(C)c23)cc1Cl [Compound 7] | 1700 | > 10000 | 3.5 | – |
| COc1ccc(CNc2nc(-c3cccnc3)nc3sc(C(=O)N4CCN(C=O)CC4)c(C)c23)cc1Cl [Compound 9] | – | – | 6.1 | – |
| COc1ccc(CNc2nc(-c3cccnc3)nc3sc(-c4ccncc4)c(C)c23)cc1Cl [Compound 10] | – | > 10000 | 3.3 | – |
| COc1ccc(CNc2nc(-c3cccnc3)nc3sc(C(=O)Nc4nccs4)c(C)c23)cc1Cl [Compound 13] | – | – | 0.32 | – |
| COc1ccc(CNc2nc(-c3cccnc3)nc3sc(C(=O)Nc4cccnc4)c(C)c23)cc1Cl [Compound 14] | – | – | 2.1 | – |
| COc1ccc(CNc2nc(-c3cccnc3)nc3sc(C(=O)NCCO)c(C)c23)cc1Cl [Compound 17] | – | – | 2.8 | – |
| COc1ccc(CNc2nc(-c3cccnc3)nc3sc(C(=O)NCCO[N+](=O)[O-])c(C)c23)cc1Cl [Compound 18] | – | – | 2.8 | – |
| COc1ccc(CNc2nc(-c3ccncc3)nc3sc(C(=O)O)c(C)c23)cc1Cl [Compound 19] | 4400 | > 10000 | 0.74 | – |
| CCOC(=O)c1sc2nc(-c3ccncc3)nc(NCc3ccc(OC)c(Cl)c3)c2c1C [Compound 20] | > 10000 | > 10000 | 3.2 | – |
| COc1ccc(CNc2nc(-c3ccncc3)nc3sc(C(=O)N(C)C)c(C)c23)cc1Cl [Compound 23] | 1600 | > 10000 | 1.6 | – |
| COc1ccc(CNc2nc(-c3ccncc3)nc3sc(C(=O)Nc4ccccc4)c(C)c23)cc1Cl [Compound 24] | – | – | 0.46 | – |
| COc1ccc(CNc2nc(-c3ccncc3)nc3sc(C(=O)Nc4ccc(NC(=O)OC(C)(C)C)cc4)c(C)c23)cc1Cl [Compound 25] | – | – | 0.52 | – |
| COc1ccc(CNc2nc(-c3ccncc3)nc3sc(C(=O)Nc4ccc(N)cc4)c(C)c23)cc1Cl [Compound 26] | – | – | 0.5 | – |

| SMILES | IC50 [1] [nM] | IC50 [2] [nM] | IC50 [3] [nM] | IC50 [4] [nM] |
| --- | --- | --- | --- | --- |
| COc1ccc(CNc2nc(-c3ccncc3)nc3sc(C(=O)N4CCOCC4)c(C)c23)cc1Cl [Compound 27] | 3700 | > 10000 | 0.53 | – |
| COc1ccc(CNc2nc(-c3ccncc3)nc3sc(C(=O)N4CCCCC4)c(C)c23)cc1Cl [Compound 28] | 1600 | > 10000 | 0.5 | – |
| COc1ccc(CNc2nc(-c3ccncc3)nc3sc(C(=O)N4CCN(C)CC4)c(C)c23)cc1Cl [Compound 29] | 6900 | > 10000 | 0.52 | – |
| COc1ccc(CNc2nc(-c3ccncc3)nc3sc(-c4ccccn4)c(C)c23)cc1Cl [Compound 32] | 240 | > 10000 | 0.68 | – |
| COc1ccc(CNc2nc(-c3ccncc3)nc3sc(C(=O)Nc4nccs4)c(C)c23)cc1Cl [Compound 33] | – | – | 0.095 | – |
| COc1ccc(CNc2nc(-c3ccncc3)nc3sc(C(=O)NCCO[N+](=O)[O-])c(C)c23)cc1Cl [Compound 38] | – | – | 0.65 | – |
| COc1ccc(CNc2nc(-c3ccccn3)nc3sc(C(=O)Nc4ccccc4)c(C)c23)cc1Cl [Compound 44] | – | > 10000 | 6.4 | – |
| COc1ccc(CNc2nc(-c3ccccn3)nc3sc(C(=O)Nc4nccs4)c(C)c23)cc1Cl [Compound 50] | – | – | 2.3 | – |
| COc1ccc(CNc2nc(-c3ccccn3)nc3sc(C(=O)Nc4cccnc4)c(C)c23)cc1Cl [Compound 51] | – | – | 7.2 | – |
| COc1ccc(CNc2nc(C(=O)Nc3ccccc3)nc3sc(-c4cccnc4)c(C)c23)cc1Cl [Compound 57] | – | – | 0.29 | – |
| COc1ccc(CNc2nc(C(=O)Nc3ccccc3)nc3sc(-c4ccncc4)c(C)c23)cc1Cl [Compound 68] | 10000 | > 10000 | 0.27 | 2400 |
| COc1ccc(CNc2nc(C(=O)Nc3ccccc3)nc3sc(C(=O)Nc4ccccc4)c(C)c23)cc1Cl [Compound 87] | – | – | 0.27 | – |
| COc1ccc(CNc2nc(C(=O)Nc3ccccc3)nc3sc(-c4ccc(F)cc4)c(C)c23)cc1Cl [Compound 90] | 8400 | > 10000 | 0.43 | > 10000 |
| COc1ccc(CNc2nc(C(=O)Nc3ccccc3)nc3scc(C)c23)cc1Cl [Compound 91] | 3400 | > 10000 | 2.5 | > 10000 |
| CCOC(=O)c1nc(NCc2ccc(OC)c(Cl)c2)c2cc(-c3ccccc3)sc2n1 [Compound 93] | > 10000 | > 10000 | 2.9 | > 10000 |
| COc1ccc(CNc2nc(C(=O)Nc3ccccc3)nc3sc(-c4ccccc4)cc23)cc1Cl [Compound 94] | 5600 | > 10000 | 0.71 | > 10000 |
| CCCc1nn(C)c2c(=O)[nH]c(-c3cc(S(=O)(=O)N4CCN(C)CC4)ccc3OCC)nc12 [Control, Sildenafil, reference compound] | > 1000 | 2000 | – | – |

Source: EP1329454A1, “THIENOPYRIMIDINE COMPOUNDS AND THEIR SALTS AND PROCESS FOR PREPARATION OF BOTH” (NIPPON SODA CO., LTD., priority 2000, dated 2002)
